{"source": "patent US20110092535A1", "about": "“Novel Epilepsy Treatment” (priority 2006, published 2011)", "origin": "cited, not measured here", "system": "maximal electric shock-induced seizures", "details": "rats", "note": "Where two headings read alike, the source gives them in different places."}
{"smiles": "Cc1nccn1CC1CCc2c(c3ccccc3n2C)C1=O", "note": "(centres unmarked) [Ondansetron]", "values": [{"measurement": "effect against maximal electric shock-induced seizures", "setting": "higher doses (>2 mg/kg)", "value": "ineffective"}, {"measurement": "effect against maximal electric shock-induced seizures", "setting": "low doses", "value": "effective"}]}
